# Key:
# [1] = Long-term stability at -20°C; type: physicochemical, human; details: 90 days at -20°C, n=5
# Procedure: (§1) Stability (ST%) studies were evaluated via sample and solution concentrations, where:
# (§2) ST% is the stability of the chemical compound in the sample over the period of time. c 0 is the initial concentration, determined without introducing any extra pauses in the analysis process. c t is the concentration obtained after the storage period with time t.
# Long term stability of the analytes was studied over a period that covered the duration of storage of the study samples from collection to the last sample analysis, this ensured that the integrity of study samples was not compromised over the period of storage. To investigate long term stability, two sets of sample aliquots were prepared at concentrations corresponding to low and high quality control levels. The first set was processed and analyzed at day 1 and the second set after 90 days of storage at -20°C. The analyte concentrations in the plasma and ultra-filtrate samples at 90 days of storage was compared with those obtained on day 1 to determine the percentage stability.
# [2] = parameters: method as in Ilomuanya et al. [15]; details: after the fourth freeze/thaw cycle; ref Ilomuanya et al. [15]; cited from earlier work
# [3] = Freeze-thaw stability (3 cycles at -20°C); type: physicochemical, human; details: 3 freeze-thaw cycles at -20°C, n=5
# Procedure: as §1, §2
# Spiked plasma samples were subjected to three freeze-thaw cycles at -20°C and the analytes concentrations assessed after the third cycle. This was done also for plasma ultra-filtrate spiked with CEF to assess the stability of free ceftriaxone in calibrators and quality control samples.
# [4] = parameters: method as in Ilomuanya et al. [15]; details: at 72h; ref Ilomuanya et al. [15]; cited from earlier work
# [5] = Sub-stock solution stability at -20°C; type: physicochemical; details: solution in 20% methanol, 28 days at -20°C; nominal conc. MET 50, CEF 300, MET-OH 30 µg/mL
# Procedure: Stock solutions of CEF (5 mg of the base/mL), MET and MET-OH (both 1 mg/mL) were prepared by dissolving an appropriate amount of each compound in 20% methanol. The stock solutions were further serially diluted with 20% methanol to make working standard solutions used to spike the blank plasma to produce 0.4, 12, 24, 48, 96,150,220, 300 µg/mL CEF and 1.2, 120, 240 µg/mL QCs; 0.05, 1.0, 2.0, 4.0, 8.0, 16.0, 32.0, 50 µg/mL MET and 0.15, 20, 40 µg/mL QCs; 0.02, 0.8, 1.6, 3.2, 6.4, 13, 20, 30 µg/mL MET-OH and 0.06, 12, 24 µg/mL QCs. Stock solution of CEFU (IS) was prepared by dissolving appropriate amount of the compound in acetonitrile, the stock solution was serially diluted with acetonitrile to make working standard solutions of 1.25 µg/mL and 1 µg/mL. All the stock solutions were stored at -20°C, protected from light (in amber sample vials) and used within three months.
# Sub-stock solution stability was evaluated for CEF, MET and MET-OH, by comparing the response generated from the same solution at preparation and after being stored at -20°C for a period of 28 days. […] The stability was reported as coefficient of variation between the initial concentration and the concentration at day 28.
# [6] = Plasma concentrations in hospitalized children with severe acute malnutrition (LC-MS/MS); type: in vivo; details: human, other: intravenous (CEF) and oral (MET), one study participant, oral MET 7.5 mg/Kg given 15 min before; for concentration at 5 min: 5 min after ceftriaxone IV (80 mg/kg); for concentration at 30 min: 30 min after ceftriaxone IV (80 mg/kg)
# Procedure: Total drug. To a 50 µL aliquot of plasma (blank, standard, quality control, or patient sample) 200 µL of internal standard (CEFU; of a 1.25 µg/mL solution in acetonitrile) was added. The 1.5 mL polypropylene tubes were vortex-mixed for 3 minutes to precipitate the plasma proteins, followed by centrifugation (4000 x g; 10 min, 4°C). The supernatant (100 µL) was transferred into another clean 1.5 mL polypropylene tube and diluted with 400 µL of 20% methanol in water. The samples were vortex-mixed for 3 minutes and submitted for analysis by LC-MS/MS.
# The validated method was successfully applied to a pharmacokinetic study of CEF, MET, MET-OH and unbound ceftriaxone in hospitalized children with complicated severe acute malnutrition (SAM) following an oral administration of MET and intravenous administration of CEF over the course of 72 hours.
# 81 hospitalized children with SAM and requiring IV antibiotics according to WHO and national guidelines were recruited (after obtaining ethical approval from the Kenya Medical Research Institute Scientific and Ethics Review Unit, approval number: KEMRI/SERU/CGMR-C023-3161 and informed consent from the parents/guardians) and treated with an oral dose of 7.5mg/Kg MET (Flagyl ®oral suspension, 200 mg/5 mL) three times daily and IV injection of 80 mg/kg CEF (Ceftriaxone Rocephin ®, 250 mg) once daily 15 min after metronidazole dose. Blood samples (3.0 mL) were collected into Li-heparinized tubes, a pre-dose sample was taken before administering the drugs. Further sampling at 5, 30, 60 min after ceftriaxone dose and 2, 4, and 8 h after metronidazole dose. The sampling plan was such that each patient had only three blood draws after the base-line sample. The blood was centrifuged (3000 rpm; 5 min), plasma separated and stored at -80°C until analysis time.
# [7] = Bench-top (short term) stability in matrix at room temperature; type: physicochemical, human; details: 8 h, n=5
# Procedure: as §1, §2
# Bench-top stability was evaluated by keeping plasma samples at low and high quality control levels at ambient temperatures (< 28°C) for at least 8h then processed and analyzed. Selected ambient temperature covered the temperature range for study samples, as ambient temperatures remained < 28°C.
# [8] = parameters: method as in Silva et al. [12]; details: over a period of 48h; ref Silva et al. [12]; cited from earlier work
# [9] = Auto-sampler (processed sample) stability; type: physicochemical, human; details: 24 h at 18°C, n=5
# Procedure: as §1, §2
# Processed sample stability was assessed by letting the samples stay in the autosampler at 18°C for 24h and then they were analyzed the following day. This was done to ensure data integrity in case of equipment failure and initiation of a re-run.
# [10] = parameters: method as in Wong et al. [17]; details: ref Wong et al. [17]; cited from earlier work
# [11] = plasma, high QC spiked conc. (MET 40, CEF 240, MET-OH 24 µg/mL)
# [12] = plasma, low QC spiked conc. (MET 0.15, CEF 1.2, MET-OH 0.06 µg/mL)
# [13] = processed plasma samples, high QC spiked conc. (MET 40, CEF 240, MET-OH 24 µg/mL)
# [14] = processed plasma samples, low QC spiked conc. (MET 0.15, CEF 1.2, MET-OH 0.06 µg/mL)
# [15] = plasma ultra-filtrate, spiked conc. 1.2 µg/mL
# [16] = plasma ultra-filtrate, spiked conc. 240 µg/mL
"Long-term stability ST % [1, 11]","Long-term stability ST % [1, 12]","Freeze-thaw stability ST % [3, 11]","Freeze-thaw stability ST % [3, 12]",Sub-stock solution stability ST % [5],concentration at 5 min [6],concentration at 30 min [6],"Benchtop stability in matrix ST % [7, 11]","Benchtop stability in matrix ST % [7, 12]","Auto-sampler stability ST % [9, 13]","Auto-sampler stability ST % [9, 14]",Structure (SMILES),other results
93.8%,95.2%,93.5%,96.1%,95.8%,2540 ng/mL,1990 ng/mL,98.3%,105.8%,93.7%,101.5%,"Cc1ncc([N+](=O)[O-])n1CCO [MET, metronidazole]",Concentration remaining after freeze/thaw [2]: < 90%; Autosampler stability [4]: 40.6%–58.7%; Mean stability [8]: 93.6% - 100.6%
90.6%,92.2%,95.3%,95.8%,96.1%,266000 ng/mL,74400 ng/mL,96.0%,98.1%,95.4%,90.6%,"CO/N=C(\C(=O)N[C@@H]1C(=O)N2C(C(=O)O)=C(CSc3nc(=O)c(=O)[nH]n3C)CS[C@H]12)c1csc(N)n1 [CEF, Ceftriaxone sodium]","Long-term stability ST % [1, 15]: 94.4%; Long-term stability ST % [1, 16]: 92.4%; Freeze-thaw stability ST % [3, 15]: 93.0%; Freeze-thaw stability ST % [3, 16]: 92.2%; Average protein binding [10]: 89.5%; Benchtop stability in matrix ST % [7, 15]: 99.8%; Benchtop stability in matrix ST % [7, 16]: 105.8%; Auto-sampler stability ST % ([9]; processed plasma ultra-filtrate, spiked conc. 1.2 µg/mL): 98.4%; Auto-sampler stability ST % ([9]; processed plasma ultra-filtrate, spiked conc. 240 µg/mL): 94.2%"
92.0%,99.1%,100.7%,97.2%,95.4%,130 ng/mL,660 ng/mL,102.2%,99.5%,92.8%,103.3%,"O=[N+]([O-])c1cnc(CO)n1CCO [MET-OH, 1-(2-hydroxyethyl)-2-hydroxymethyl-5-nitroimidazole]",

# — PMC5801568, “Liquid chromatography–tandem mass spectrometry for the simultaneous quantitation of ceftriaxone, metronidazole and hydroxymetronidazole in plasma from seriously ill, severely malnourished children” (Wellcome Open Research, 2018)
